# How the values were obtained:
# mechanical allodynia = assay: Spinal nerve injury (SNI) model, Von Frey test; assay type: in vivo, rat; conditions: 60 mg/kg i.p.
# From the text: The SNI model of neuropathic pain was developed in rats using the procedure described by Decostered and Woolf, Pain 2000, 87: 149-158. Under isoflurane anesthesia, the skin on the lateral surface of the thigh was incised and a section was made directly through the biceps femoris muscle exposing the sciatic nerve and its three terminal branches: the sural, common peroneal and tibial nerves. The common peroneal and the tibial nerves were tight-ligated with 6-0 suture and sectioned distal to the ligation, removing 2-4 mm of the distal nerve stump. Extreme care was taken to avoid any contact with or stretching of the intact sural nerve. Following surgery, hemostasis was confirmed and the muscles were sutured in layers using 4-0 suture and the skin was closed with 4-0 suture and metal clips. Male, Sprague-Dawley rats were used. Testing of compounds was done 21 days post-operatively. After initial basal readings were taken, the test compound or vehicle was administered. The readings were taken again 30, 60 and 180 min after the compound/vehicle administration. Both the control (uninjured) and the SNI paw were tested. The presence of mechanical allodynia was assessed using the Dynamic Plantar Aesthesiometer (Ugo Basile, Italy) which is a modified version of the Von Frey Hair test. […] A single reading was taken per time point. […]
# [1] = system: Metrazol seizure threshold; assay: Timed intravenous infusion of Metrazol (iv Met) in mouse; assay type: in vivo; conditions: FIG. 1, p<0.001
# Experimental: The iv-Met test provides a measure of a test substance's ability to raise or lower seizure threshold. Two doses of the test compound are usually employed in this test, the MES ED50 and the TD50 determined following ip quantification testing in mice. Randomly selected mice are injected intraperitoneally 2 minutes apart with either the vehicle or the two test drug doses, maintaining the same order of dosing until 30 mice have been injected. At the previously determined TPE, 0.5% heparinized Metrazol solution is infused at a constant rate of 0.34 ml/min into a lateral tail vein of an unrestrained mouse. Infusion is by means of a Sage syringe pump (model 341 A) and a 10 ml B-D plastic syringe connected to a length of No 20 P.E. tubing. A 27 gauge stainless steel needle with the hub removed is connected to the tubing and inserted into a vein, bevel side up and secured to the tail by a narrow piece of adhesive tape. For the placement of the needle, the mouse is restrained in a cone shaped device with only the tail exposed. […] The time in seconds from the start of the infusion to the appearance of the “first twitch” and the onset of sustained clonus is recorded. The times to each endpoint are converted to mg/kg of Metrazol for each mouse as follows: The mean and standard error for each of the 3 groups and the significance of the difference between the test groups and the control are calculated.
# audiogenic seizure (AGS) = assay: Frings AGS-susceptible mouse model; assay type: in vivo; conditions: ip, read-out: ED50, block of AGS
# From the text: Frings audiogenic seizure (AGS)-susceptible mice model examines the ability of an investigational drug to alter the onset and/or severity of seizures in a genetic mouse model of seizure susceptibility. Mice are genetically susceptible to sound-induced reflex seizures. Their seizure phenotype is characterized by wild running, loss of righting reflex, tonic flexion, and tonic extension in response to high-intensity sound stimulation. […] For example, the prototypical anticonvulsants phenytoin and ethosuximide display widely divergent clinical spectrums in humans, but are both active against sound-induced seizures in mice. Yet, the preclinical utility of this animal model rests in the useful information that can be obtained within a genetically susceptible model of seizures. Further, efficacy in this model provides proof of concept of brain bioavailability following systemic administration. […] At the time of peak effect as determined in the MES test (Test 4 in CF1 mice), individual mice are placed in a round plexiglass jar (diameter, 15 cm; height, 18 cm) and exposed to a sound stimulus of 110 decibels (11 KHz) delivered for 20 sec. […] The severity of a seizure may also be quantitated by assigning a numerical score to the observed response, e.g. no response—0; wild running for <10 sec—1; wild running for >10 sec—2; clonic seizure—3; forelimb extension/hind limb flexion—4; tonic seizure—5.
Compound,"mechanical allodynia in the denervated paw, Von Frey test (mechanical allodynia)","seizure threshold (time to twitch, time to clonus, total dose of pentylenetetrazol to first twitch or clonus) [1]",ED50 (audiogenic seizure (AGS)) [mg/kg]
"NC(=O)COc1cc(C(F)(F)F)cc(C(F)(F)F)c1 [I(F), 2-[3,5 bis(trifluoromethyl)-phenoxy]acetamide;]",effective,,
"C[C@@H](Oc1cc(Cl)cc(C(F)(F)F)c1)C(N)=O [I(D), (2R)-2-[3-chloro-5-(trifluoromethyl)-phenoxy]propanamide]",,elevate seizure threshold,28.9 ± 3.08
